Reference: US8778412B2, “Methods for increasing the stabilization of hypoxia inducible factor-1 alpha” (Aerpio Therapeutics Inc., priority 2009, dated 2014)

Legend:
[1] = Solubility of pharmaceutically acceptable salts in water; type: physicochemical; conditions: distilled deionized water, sonicated 20 min, under 25° C., HPLC
Description: The formulator can determine the solubility of the pharmaceutically acceptable salts of the disclosed inhibitors by any method desirable. The following is a non-limiting example of a procedure for evaluating the solubility of a salt of a disclosed inhibitor. A suspension of tert-butyl-{[1-(4-chlorobenzyl)-3-hydroxy-2-oxo-1,2-dihydropyridin-4-yl]methyl}-piperazine-1-carboxylate methanesulfonate (26.6 mg) in distilled deionized water (3.0 mL) is sonicated for 20 min with water bath temperature under 25° C. The suspension is filtered to remove any insoluble salt. The clear filtrate solution (200 μL) is diluted with distilled deionized water (800 μL) and subjected to HPLC analysis. The following are results for the pharmaceutically acceptable salts outlined in Table VII above.

HIFPH2 (EGLN1) = HIFPH2 (EGLN1) (Homo sapiens (Human), UniProt Q9GZT9); assay: EGLN-1 Activity Assay (MALDI-TOF MS); type: biochemical; conditions: recombinant human EGLN-1-179/426, HIF-1α peptide 556-574
Chain of HIFPH2 (EGLN1) (Q9GZT9 179-426): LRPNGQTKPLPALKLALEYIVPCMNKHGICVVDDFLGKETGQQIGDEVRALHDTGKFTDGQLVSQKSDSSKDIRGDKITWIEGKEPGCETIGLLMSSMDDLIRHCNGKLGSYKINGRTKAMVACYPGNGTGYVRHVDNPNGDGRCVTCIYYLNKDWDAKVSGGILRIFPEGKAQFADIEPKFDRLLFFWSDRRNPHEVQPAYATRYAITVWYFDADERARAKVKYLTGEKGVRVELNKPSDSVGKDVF
Description: The enzyme, quantity predetermined to hydroxylate 20% of substrate in 20 minutes, is added to start the reaction. Where inhibitors are used, compounds are prepared in dimethyl sulfoxide at 10-fold final assay concentration. After 20 minutes at room temperature, the reaction is stopped by transferring 10 μL of reaction mixture to 50 μL of a mass spectrometry matrix solution (α-cyano-4-hydroxycinnamic acid, 5 mg/mL in 50% acetonitrile/0.1% TFA, 5 mM NH4PO4). Two microliters of the mixture is spotted onto a MALDI-TOF MS target plate for analysis with an Applied Biosystems (Foster City, Calif.) 4700 Proteomics Analyzer MALDI-TOF MS equipped with a Nd:YAG laser (355 nm, 3 ns pulse width, 200 Hz repetition rate). Hydroxylated peptide product is identified from substrate by the gain of 16 Da. Data defined as percent conversion of substrate to product is analyzed in GraphPad Prism 4 to calculate IC50 values.

[2] = test system: phosphoglycerate kinase (PGK) expression; assay: PGK expression in murine embryonic fibroblasts; type: cell-based; conditions: 1 μM, 10 μM, vs wild type control (FIG. 12)
Description: FIG. 11 depicts the up regulation of phosphoglycerate kinase (PGK) expression in wild type murine embryonic fibroblasts as a result of treatment with a compound disclosed in Table VIII at dosages of 1 μM (E), 10 μM (F), and 50 μM (G) vs. wild type control (H) and the lack of up regulation of PGK expression in HIF-1 knock out cells as a result of treatment with a compound disclosed in Table VIII at dosages of 1 μM (A), 10 μM (B), and 50 μM (C) and HIF-1 knock out control (D). Both cell types were treated for 7 hours.

IC50 (HIFPH2 (EGLN1))	Compound	Solubility [1]	further results
–	CC(C)(C)OC(=O)N1CCN(Cc2ccn(Cc3ccc(Cl)cc3)c(=O)c2O)CC1 [Compound A41]	~1 µg/mL	–
17 µM	O=c1c(O)c(CN2CCN(Cc3ccccc3)CC2)ccn1Cc1ccccc1 [Compound B9, 1-benzyl-3-hydroxy-4-[(4-benzylpiperazin-1-yl)methyl]pyridin-2(1H)-one]	–	–
12 µM	O=c1c(O)c(CNCc2ccccc2)ccn1Cc1ccc(Cl)cc1 [Compound C1, 1-(4-chlorobenzyl)-3-hydroxy-4-[(4-benzylamino)methyl]pyridin-2(1H)-one]	–	–
–	O=c1c(O)cccn1Cc1cccc(Cl)c1 [Compound F2, 1-(3-chlorobenzyl)-3-hydroxypyridin-2(1H)-one]	–	PGK expression in wild type murine embryonic fibroblasts [2]: up regulation
–	CC(C)(C)OC(=O)N1CCN(Cc2ccn(Cc3ccc(Cl)cc3)c(=O)c2O)CC1.CS(=O)(=O)O [methanesulfonate, tert-butyl-{[1-(4-chlorobenzyl)-3-hydroxy-2-oxo-1,2-dihydropyridin-4-yl]methyl}-piperazine-1-carboxylate methanesulfonate]	16600 µg/mL	–
